We go through 23 compounds from patent US20240190890A1, “MK2 INHIBITORS AND USES THEREOF” (Bristol-Myers Squibb Company, priority 2022, published 2024).

pIC50: −log10 of the molar value.

p38a activated, mitogen-activated protein kinase-activated protein kinase 2 (MAPKAP-K2 or MK2) enzyme, sequence (P49137 whole entry): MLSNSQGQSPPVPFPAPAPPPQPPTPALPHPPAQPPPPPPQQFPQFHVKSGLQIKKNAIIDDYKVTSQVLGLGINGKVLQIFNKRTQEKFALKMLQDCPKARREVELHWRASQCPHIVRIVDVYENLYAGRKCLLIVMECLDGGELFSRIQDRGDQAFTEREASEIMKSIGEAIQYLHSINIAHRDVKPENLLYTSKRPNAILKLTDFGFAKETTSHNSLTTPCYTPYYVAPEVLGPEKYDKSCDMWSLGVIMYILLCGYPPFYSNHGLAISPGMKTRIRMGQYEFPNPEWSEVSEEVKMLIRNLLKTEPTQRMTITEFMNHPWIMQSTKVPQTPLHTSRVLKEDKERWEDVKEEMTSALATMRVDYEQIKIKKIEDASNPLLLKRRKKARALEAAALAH

This assay addresses p38a activated, mitogen-activated protein kinase-activated protein kinase 2 (MAPKAP-K2 or MK2) enzyme (Homo sapiens (Human), UniProt P49137). Nature of the assay: MK2 Omnia continuous-read kinase assay for compound potency. It counts as biochemical. The note with it: [MK-2]=0.4 nM, [ATP]=10 μM, [ST3-Sox]=10 μM; room temperature. From the text: Mitogen-Activated Protein Kinase-Activated Protein Kinase 2 Omnia® Assay for Compound Potency Assessment:
The protocol below describes a continuous-read kinase assay optimized to measure potency of compounds against p38a activated, mitogen-activated protein kinase-activated protein kinase 2 (MAPKAP-K2 or MK2) enzyme. Further details of this assay are described by Life Technologies, Carlsbad, CA on their website at the following URL: http://tools.lifetechnologies.com/content/sfs/manuals/omnia_kinase_assay_man.pdf. • [Reagent] used: • [MK-2]=0.4 nM, • [ATP]=10 μM and • [ST3-Sox]=10 μM (ATP^appKM=10 μM)
Briefly, 10× stock solutions of MK2 (PV3317, from Life Technologies), 1.13X ATP (AS001A), and Sox conjugated peptide substrate, S/T3-Sox, (KZN1031) were prepared in 1× kinase reaction buffer consisting of 20 mM Tris, pH 7.5, 5 mM MgCl2, 1 mM EGTA, 5 mM β-glycerophosphate, 5% glycerol (10× stock, KB001A) and 0.2 mM DTT (DS001A). Enzyme solution (5 μL) was added to each of DMSO ([…]) or serially diluted test compounds prepared in DMSO in a Corning (#3574) 384-well, white, non-binding surface microtiter plate (Corning, NY). Kinase reactions were started with the addition of 45 μL of the ATP-peptide substrate S/T3-Sox mix and monitored every 71 seconds for 120 minutes at λex360/λem485 in a Synergy H4 plate reader from BioTek (Winooski, VT) at room temperature.
Background signals from the no enzyme control wells were subtracted from all progress curves. The initial linear portions of the net progress curves were fit according to a linear equation to yield the slope and percentage of inhibition (% inhibition) at each compound concentration. The net progress curves obtained during the first two hours of reactions were also fit according to an ascending single-exponential equation (Eq. 1) to yield kobs values at each compound concentration. Plots of % Inhibition versus inhibitor concentrations were fit according to a dose-response equation (Eq. 2) to generate IC50 and Hill slope values while plots of kobs versus inhibitor concentration were fit according to Equation 3 (Eq. 3) to generate apparent kinact/K1 values using the GraphPad PRISM software (Version 6.00; GraphPad San Diego, CA).
where F is the fluorescence intensity from the plate reader, V0 is a constant reflecting the relationship between the instrument readout and product concentration, t is time, e is Euler's number, and kobs is the observed inactivation rate constant.
where % Inhibition is percentage of inhibition, IC50 is half maximal inhibitory concentration, [I] is the inhibitor concentration, and n is the Hill slope.
where kobs is the observed inactivation rate constant, kinact is the apparent inactivation rate constant, K1 is the apparent inhibition constant, and [I] is the inhibitor concentration. […] Potency results for the compounds tested are shown in Table 4 in the column entitled “MK2 IC50.”
For orientation: pIC50 means the IC50 on a negative log10 scale, so that one unit is a factor of ten. As for `C=Cc1cc(C(F)(F)F)n(-c2ccc3c(ccc4sc5c(c43)NC[C@@H](C)NC5=O)n2)n1` [Example I-257, (R)-10-methyl-3-(5-(trifluoromethyl)-3-vinyl-1H-pyrazol-1-yl)-9,10,11,12-tetrahydro-8H-[1,4]diazepino[5′,6′:4,5]thieno[3,2-f]quinolin-8-one], the pIC50 was 6.00.
The result for `C[C@@H]1CNc2c(sc3ccc4nc(-c5ccnc(/C=C/CN(C)C)c5)ccc4c23)C(=O)N1` [Example I-114, (R,E)-3-(2-(3-(dimethylamino)prop-1-en-1-yl)pyridin-4-yl)-10-methyl-9,10,11,12-tetrahydro-8H-[1,4]diazepino[5′,6′:4,5]thieno[3,2-f]quinolin-8-one] reads 7.96.
Turning to `C=Cc1cncc(-c2ccc3c(ccc4sc5c(c43)NC[C@@H](C)NC5=O)n2)c1` [Example I-82, (R)-10-methyl-3-(5-vinylpyridin-3-yl)-9,10,11,12-tetrahydro-8H-[1,4]diazepino[5′,6′:4,5]thieno[3,2-f]quinolin-8-one], the pIC50 was 7.68.
Take “(R)-10-methyl-3-(6-(4-methylpiperazin-1-yl)-2-vinylpyrimidin-4-yl)-9,10,11,12-tetrahydro-8H-[1,4]diazepino[5′,6′:4,5]thieno[3,2-f]quinolin- [Example I-18]”: the pIC50 was 8.40.
As for `C=Cc1nc(C)nn1-c1ccc2c(ccc3sc4c(c32)NC[C@@H](C)NC4=O)n1` [Example I-224, (R)-10-methyl-3-(3-methyl-5-vinyl-1H-1,2,4-triazol-1-yl)-9,10,11,12-tetrahydro-8H-[1,4]diazepino[5′,6′:4,5]thieno[3,2-f]quinolin-8-one], the pIC50 was 8.70.
The result for `C[C@@H]1CNc2c(sc3ccc4nc(-c5cc(Cl)nc(CO)n5)ccc4c23)C(=O)N1` [Example I-74, (R)-3-(6-chloro-2-(hydroxymethyl)pyrimidin-4-yl)-10-methyl-9,10,11,12-tetrahydro-8H-[1,4]diazepino[5′,6′:4,5]thieno[3,2-f]quinolin-8-one] reads 8.40; that for `C[C@@H]1CNc2c(sc3ccc4nc(-c5nc(Cl)ncc5F)ccc4c23)C(=O)N1` [Example I-273, (R)-3-(2-chloro-5-fluoropyrimidin-4-yl)-10-methyl-9,10,11,12-tetrahydro-8H-[1,4]diazepino[5′,6′:4,5]thieno[3,2-f]quinolin-8-one], 6.82; that for `C=Cc1cc(-c2ccc3c(ccc4sc5c(c43)NC[C@@H](C)NC5=O)n2)c(Cl)cn1` [Example I-143, (R)-3-(5-chloro-2-vinylpyridin-4-yl)-10-methyl-9,10,11,12-tetrahydro-8H-[1,4]diazepino[5′,6′:4,5]thieno[3,2-f]quinolin-8-one], 7.23.
Consider “(R)-10-methyl-3-(6-(3-morpholinoprop-1-en-2-yl)pyrimidin-4-yl)-9,10,11,12-tetrahydro-8H-[1,4]diazepino[5′,6′:4,5]thieno[3,2-f]quinolin- [Example I-139]”, for which the pIC50 was 8.70.
In the case of `C[C@@H]1CNc2c(sc3ccc4nc(-c5cc(Cl)nnc5OCCN5CCCC5)ccc4c23)C(=O)N1` [Example I-119, (R)-3-(6-chloro-3-(2-(pyrrolidin-1-yl)ethoxy)pyridazin-4-yl)-10-methyl-9,10,11,12-tetrahydro-8H-[1,4]diazepino[5′,6′:4,5]thieno[3,2-f]quinolin-8-one], the negative-log IC50 (pIC50) was 6.01.
The result for `C#Cc1cccc(-c2ccc3c(ccc4sc5c(c43)NC[C@@H](C)NC5=O)n2)n1` [Example I-56, (R)-3-(6-ethynylpyridin-2-yl)-10-methyl-9,10,11,12-tetrahydro-8H-[1,4]diazepino[5′,6′:4,5]thieno[3,2-f]quinolin-8-one] reads 6.71; that for `C=Cc1nncn1-c1ccc2c(ccc3sc4c(c32)NC[C@@H](C)NC4=O)n1` [Example I-203, (R)-10-methyl-3-(3-vinyl-4H-1,2,4-triazol-4-yl)-9,10,11,12-tetrahydro-8H-[1,4]diazepino[5′,6′:4,5]thieno[3,2-f]quinolin-8-one], 8.05.
The result for `C=Cc1ncc(C)c(-c2ccc3c(ccc4sc5c(c43)NC[C@@H](C)NC5=O)n2)n1` [Example I-33, (R)-10-methyl-3-(5-methyl-2-vinylpyrimidin-4-yl)-9,10,11,12-tetrahydro-8H-[1,4]diazepino[5′,6′:4,5]thieno[3,2-f]quinolin-8-one] reads 6.92; that for `C=Cc1cc(-c2ccc3c(ccc4sc5c(c43)NC[C@@H](C)NC5=O)n2)ccn1` [Example I-55, (R)-10-methyl-3-(2-vinylpyridin-4-yl)-9,10,11,12-tetrahydro-8H-[1,4]diazepino[5′,6′:4,5]thieno[3,2-f]quinolin-8-one], 9.00; that for `C=C(c1cncc(-c2ccc3c(ccc4sc5c(c43)NC[C@@H](C)NC5=O)n2)n1)C(F)(F)F` [Example I-225, (R)-10-methyl-3-(6-(3,3,3-trifluoroprop-1-en-2-yl)pyrazin-2-yl)-9,10,11,12-tetrahydro-8H-[1,4]diazepino[5′,6′:4,5]thieno[3,2-f]quinolin-8-one], 7.72.
For the compound `C[C@@H]1CNc2c(sc3ccc4nc(-c5cc(Cl)nc(Cl)n5)ccc4c23)C(=O)N1` [Example I-58, (R)-3-(2,6-dichloropyrimidin-4-yl)-10-methyl-9,10,11,12-tetrahydro-8H-[1,4]diazepino[5′,6′:4,5]thieno[3,2-f]quinolin-8-one], the negative-log IC50 (pIC50) is 7.80.
The result for `C=Cc1cc(-c2ccc3c(ccc4sc5c(c43)NCC(C)NC5=O)n2)cc(N2CCC3(CCC(=O)O3)CC2)n1` (racemic) [Example I-215, rac-(R)-8-(4-(10-methyl-8-oxo-9,10,11,12-tetrahydro-8H-[1,4]diazepino[5′,6′:4,5]thieno[3,2-f]quinolin-3-yl)-6-vinylpyridin-2-yl)-1-oxa-8-azaspiro[4.5]decan-2-one] reads 7.68.
As to `C#Cc1nc(CN2CCN(C)CC2)cc(-c2ccc3c(ccc4sc5c(c43)NC[C@@H](C)NC5=O)n2)n1` [Example I-89, (R)-3-(2-ethynyl-6-((4-methylpiperazin-1-yl)methyl)pyrimidin-4-yl)-10-methyl-9,10,11,12-tetrahydro-8H-[1,4]diazepino[5′,6′:4,5]thieno[3,2-f]quinolin-8-one], the negative logarithm of the IC50 (pIC50) is 7.59.
The result for `C[C@@H]1CNc2c(sc3ccc4nc(-c5nc(Cl)ncc5COC5COC5)ccc4c23)C(=O)N1` [Example I-20, (R)-3-(2-chloro-5-((oxetan-3-yloxy)methyl)pyrimidin-4-yl)-10-methyl-9,10,11,12-tetrahydro-8H-[1,4]diazepino[5′,6′:4,5]thieno[3,2-f]quinolin-8-one] reads 6.65; that for `C[C@@H]1CNc2c(sc3ccc4nc(-c5ccnc(Cl)c5)ccc4c23)C(=O)N1` [Example I-272, (R)-3-(2-chloropyridin-4-yl)-10-methyl-9,10,11,12-tetrahydro-8H-[1,4]diazepino[5′,6′:4,5]thieno[3,2-f]quinolin-8-one], 7.17.
On to `C#Cc1cc(-c2ccc3c(ccc4sc5c(c43)NC[C@@H](C)NC5=O)n2)c(C#N)cn1` [Example I-162, (R)-6-ethynyl-4-(10-methyl-8-oxo-9,10,11,12-tetrahydro-8H-[1,4]diazepino[5′,6′:4,5]thieno[3,2-f]quinolin-3-yl)nicotinonitrile], for which the negative-log IC50 (pIC50) is 8.70.
The result for `C[C@@H]1CNc2c(sc3ccc4nc(-c5cc(Cl)nc(N6CCN(C)CC6)c5)ccc4c23)C(=O)N1` [Example I-94, (R)-3-(2-chloro-6-(4-methylpiperazin-1-yl)pyridin-4-yl)-10-methyl-9,10,11,12-tetrahydro-8H-[1,4]diazepino[5′,6′:4,5]thieno[3,2-f]quinolin-8-one] reads 7.37.
The same measure for `C=Cc1cc(N2CCN(C)CC2)nc(-c2ccc3c(ccc4sc5c(c43)NC[C@@H](C)NC5=O)n2)n1` [Example I-62, (R)-10-methyl-3-(4-(4-methylpiperazin-1-yl)-6-vinylpyrimidin-2-yl)-9,10,11,12-tetrahydro-8H-[1,4]diazepino[5′,6′:4,5]thieno[3,2-f]quinolin-8-one]: 7.57.
